Source: paper PMC11801377, “A uniquely efficacious type of CFTR corrector with complementary mode of action” (Science Advances, 2024)

Biological target: T1, F508del-CFTR-G550E.R553M.R555K (3TS) (Homo sapiens, UniProt P13569, DEL508-508/G550E/R553M/R555K)
T1 construct: expressed in transfected cells; host or cells: T-REx HEK293
Assay: CFTR immunoblotting in HEK-TREx cells expressing thermostabilized F508del-CFTR (3TS)
Format: cell-based
Conditions: 48 hours, IDOR-3 2 μM, IDOR-4 0.4 μM, TEZ 2 μM, ELX 0.4 μM
Text: The human CFTR expressing HEK cell pools with the mutations described below were generated by integrase-mediated homologous recombination of the CFTR sequence into the T-REx HEK293 background (Thermo Fisher Scientific). This expression system allows the tetracycline-inducible expression of genes of interest from one defined insertion site. Parental T-REx-HEK293 cells were cultivated in growth medium: Dulbecco’s modified Eagle’s medium + GlutaMAX-I (#31966, Life Technologies), 10% dialyzed FBS (Gibco, #26400), penicillin (100 U/ml), streptomycin (100 μg/ml), hygromycin B (0.1 mg/ml; Life Technologies), blasticidin (5 μg/ml; Invitrogen, #R210-01), and 0.1 mM nonessential amino acid solution (Invitrogen, #11140-035). Recombinant T-REx-HEK-CFTR cells were generated by lipofectamine transfection (Life Technologies) of plasmids containing mutated versions of CFTR (RefSeq NM_000492) and then cultivated in selection medium [growth medium containing Geneticin (1 mg/ml) (Invitrogen, #10131-027) instead of hygromycin]. The plasmid constructs were synthetized by GENEART (Thermo Fisher Scientific) and designed with the WT CFTR intron 5 to 6 (880 nucleotides) to prevent leaky expression issues during the cloning process in bacteria. For evaluation of corrector efficacies on second-site suppressor mutants, the following mutations were introduced into the CFTR.F508del gene sequence: G550E.R553M.R555K and G550E.R553M.R555K.R1070W. The following plasmids expressing different truncated versions of CFTR.F508del gene were generated: K381X, delF508-M837X, delF508-E1172X, and M837-L1480. For the evaluation of different binding sites by site-directed mutagenesis, the following mutations were introduced individually into the CFTR.F508del gene: del14-21, K14A, K14A.R80V, K14A.Y84F, L15W, R1102A, and L195W. Deletion of the peptide stretching amino acids 14 to 21 was also introduced into truncated K381X: del14-21.K381X. […]

T1 sequence (P13569 with tags, fused parts or gaps DEL508-508/G550E/R553M/R555K): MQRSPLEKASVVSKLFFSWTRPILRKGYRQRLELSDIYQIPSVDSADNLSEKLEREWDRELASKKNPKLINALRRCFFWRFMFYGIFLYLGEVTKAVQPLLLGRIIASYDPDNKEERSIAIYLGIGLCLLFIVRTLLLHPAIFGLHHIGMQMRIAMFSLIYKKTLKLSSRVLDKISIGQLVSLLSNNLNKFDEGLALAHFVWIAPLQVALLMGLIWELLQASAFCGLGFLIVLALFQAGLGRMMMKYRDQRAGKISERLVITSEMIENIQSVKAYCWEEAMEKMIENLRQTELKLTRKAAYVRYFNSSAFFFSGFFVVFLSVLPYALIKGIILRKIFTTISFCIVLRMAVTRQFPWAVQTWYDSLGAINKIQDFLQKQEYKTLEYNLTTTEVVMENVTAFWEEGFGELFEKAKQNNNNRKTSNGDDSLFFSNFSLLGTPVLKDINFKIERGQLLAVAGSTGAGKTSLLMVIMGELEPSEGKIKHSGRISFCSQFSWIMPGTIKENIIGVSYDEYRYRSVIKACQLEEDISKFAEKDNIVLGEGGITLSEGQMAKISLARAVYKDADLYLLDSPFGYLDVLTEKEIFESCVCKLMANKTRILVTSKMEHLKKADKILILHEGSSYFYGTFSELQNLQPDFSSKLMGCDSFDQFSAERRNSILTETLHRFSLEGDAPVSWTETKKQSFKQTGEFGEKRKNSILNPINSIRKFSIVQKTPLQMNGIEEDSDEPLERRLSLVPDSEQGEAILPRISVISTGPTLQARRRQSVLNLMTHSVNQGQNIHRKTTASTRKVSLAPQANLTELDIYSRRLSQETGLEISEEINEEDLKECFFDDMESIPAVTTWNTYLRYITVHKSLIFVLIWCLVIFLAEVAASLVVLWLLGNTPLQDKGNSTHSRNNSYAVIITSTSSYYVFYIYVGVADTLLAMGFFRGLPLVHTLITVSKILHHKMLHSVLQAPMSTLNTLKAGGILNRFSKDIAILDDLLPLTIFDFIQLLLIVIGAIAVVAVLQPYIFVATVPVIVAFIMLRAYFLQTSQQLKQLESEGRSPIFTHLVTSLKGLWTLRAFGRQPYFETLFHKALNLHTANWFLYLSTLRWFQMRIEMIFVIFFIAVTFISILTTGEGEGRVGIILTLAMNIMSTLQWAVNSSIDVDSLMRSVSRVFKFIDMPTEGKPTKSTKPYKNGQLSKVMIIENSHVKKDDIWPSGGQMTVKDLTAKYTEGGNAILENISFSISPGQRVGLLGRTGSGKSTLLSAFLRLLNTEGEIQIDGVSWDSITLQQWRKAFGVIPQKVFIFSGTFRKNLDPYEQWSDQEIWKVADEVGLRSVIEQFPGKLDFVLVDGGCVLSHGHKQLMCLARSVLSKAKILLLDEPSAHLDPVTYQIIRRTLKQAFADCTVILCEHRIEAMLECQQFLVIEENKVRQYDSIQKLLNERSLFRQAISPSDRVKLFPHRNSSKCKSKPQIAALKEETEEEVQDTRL

improvement of C-band expression after introduction of 3TS mutations | SMILES
~ 4 fold | Cc1nn(C)cc1S(=O)(=O)NC(=O)c1ccc(-n2ccc(OCC(C)(C)C(F)(F)F)n2)nc1N1C[C@@H](C)CC1(C)C [ELX, elexacaftor]
~ 1.5 fold | COc1cc(CCNC(=O)C2CC(=O)N(C)C(CC(C)C)C(=O)N3CCCCC3C(=O)NC(Cc3ccccc3)COc3ccc4ncc(F)cc4c3C(=O)N2)on1 (stereo not drawn) [IDOR-3]
~ 4 fold | CC(C)(CO)c1cc2cc(NC(=O)C3(c4ccc5c(c4)OC(F)(F)O5)CC3)c(F)cc2n1C[C@@H](O)CO [TEZ, tezacaftor]
